Measurements from patent publication US20070128124A1 (published 2007).
Read-outs that look alike come from different tables or passages of the source.

Legend:
MTB strain H37Rv [1] = assay type: cell-based, Mycobacterium tuberculosis
MTB strain H37Rv [2] = assay type: cell-based, Mycobacterium tuberculosis; remark: listed apart in the source
MTB strain H37Rv [3] = assay type: cell-based, Mycobacterium tuberculosis; remark: listed apart in the source
[4] = tested on: tuberculosis bacilli in the lungs; experiment: Chronic murine infection model, efficacy versus duration of infection; assay type: in vivo, mouse
MTB strain H37Rv [5] = tested on: MTB strain H37Rv; design: species or system C57/BL6 mice; details: mouse, in vivo
MTB = details: against MTB; cited from earlier work
[6] = cited from earlier work
[7] = renal and ototoxicity, parenteral use; cited from earlier work
[8] = cited from earlier work; remark: listed apart in the source
[9] = 10 times MIC, after 18-24 hours of incubation, stationary phase

| Compound | decrease in RLU from untreated cultures at peak efficacy (MTB strain H37Rv [1]) | time of peak efficacy (RLU endpoint) (MTB strain H37Rv [1]) | time at which an effect begins (MTB strain H37Rv [2]) | RLU reduction, stationary phase (MTB strain H37Rv [2]; [9]) | reduction of CFUs (MTB strain H37Rv [3]) | reduction of bacillary load in the lungs ([4]; 13 weeks post infection) | reduction of lung CFU ([4]; two weeks post infection) | RLU reduction, log phase growth (MTB strain H37Rv [1]) | RLU reduction, stationary phase (MTB strain H37Rv [2]) | efficacy compared with isoniazid and rifampicin (MTB strain H37Rv [1]) | reduction in efficacy from log phase cultures (MTB strain H37Rv [2]; stationary versus log phase, RLU at 24 hrs) | reduction in lung CFU, aerosol treated group (MTB strain H37Rv [5]) | reduction in lung CFU, subcutaneous administered group (MTB strain H37Rv [5]; sc) | minimum inhibitory concentration (MIC) (MTB) | maximum serum concentration (Cmax) ([6]; human, reached two hours after intramuscular injection) | oral absorption ([6]; oral) | patients in whom toxicities occur [7] | solubility in water [8] |
| --- | --- | --- | --- | --- | --- | --- | --- | --- | --- | --- | --- | --- | --- | --- | --- | --- | --- | --- |
| NNC(=O)c1ccncc1 [isoniazid] | ~1.5 log | 72 h | 48 h | no significant effect | no effect | 0.5 logs | 2 logs | – | – | – | – | – | – | – | – | – | – | – |
| CO[C@H]1/C=C/O[C@@]2(C)Oc3c(C)c(O)c4c(O)c(c(/C=N/N5CCN(C)CC5)c(O)c4c3C2=O)NC(=O)/C(C)=C\C=C\[C@H](C)[C@H](O)[C@@H](C)[C@@H](O)[C@@H](C)[C@H](OC(C)=O)[C@@H]1C [rifampicin] | 3.5 log | – | – | – | 0.5 logs | – | – | 2.25 logs | 0.3 logs | – | – | – | – | – | – | – | – | – |
| Capreomycin | 3.5 log | – | – | approximately 2 logs | 2.5 logs | – | – | approximately 2 logs | – | superior to that of isoniazid and is as efficacious as rifampicin | ~15% | ~2.5 logs | 1 log | 2.5 µg/mL | 25000 ng/mL | quite poor | up to 10 % of patients | soluble in water |
